Data as given in patent US20170023576A1, “NOTCH3 ANTIBODIES AND USES THEREOF” (ONCOMED PHARMACEUTICALS, INC., priority 2014, published 2017).

Experiments:
[1] = test system: OMP-PN08 pancreatic tumor; assay: Pancreatic tumor xenograft growth in vivo, OMP-PN08; set-up: species or system human; details: OMP-PN8 tumors in NOD/SCID mice; antibody 40 mg/kg every other week, gemcitabine 20 mg/kg weekly
Protocol: (§1) Ten primary patient-derived pancreatic tumor xenografts were tested for efficacy in response to anti-Notch2/3 antibody OMP-59R5 in combination with gemcitabine. These tumors were OMP-PN04, OMP-PN07, OMP-PN08, OMP-PN11, OMP-PN13, OMP-PN16, OMP-PN17, OMP-PN21, OMP-PN23, and OMP-PN25.
In one representative example, OMP-PN8 pancreatic tumor cells (2×10^4) were injected into NOD/SCID mice. Tumors were allowed to grow for 22 days until they reached an average volume of 125 mm^3. Tumor-bearing mice were randomized into 4 groups and treated with control antibody, anti-NOTCH2/3 antibody OMP-59R5, gemcitabine, or a combination of OMP-59R5 and gemcitabine. Antibodies were dosed every other week at 40 mg/kg. Gemcitabine was dosed weekly at 20 mg/kg. Tumor growth was monitored and tumor volumes were measured with electronic calipers on the indicated days post-treatment.

[2] = test system: OMP-PN11 pancreatic tumor; assay: Pancreatic tumor xenograft growth in vivo, OMP-PN11; set-up: species or system human; details: OMP-PN11 tumors in NOD/SCID mice; antibody 40 mg/kg every other week, gemcitabine 20 mg/kg weekly
Protocol: as §1
In a second representative example, OMP-PN11 pancreatic tumor cells (5×10^4) were injected into NOD/SCID mice. Tumors were allowed to grow for 21 days until they reached an average volume of 120 mm^3. Tumor-bearing mice were randomized into 4 groups and treated with control antibody, OMP-59R5, gemcitabine, or a combination of OMP-59R5 and gemcitabine. Antibodies were dosed every other week at 40 mg/kg. Gemcitabine was dosed weekly at 20 mg/kg. […] Tumor growth was monitored and tumor volumes were measured with electronic calipers on the indicated days post-treatment.

OMP-59R5: anti-NOTCH2/3 therapeutic antibody; heavy chain variable region SEQ ID NO:18, light chain variable region SEQ ID NO:26
tumor growth (FIG. 1A) [1]: significantly inhibited tumor growth | tumor growth (FIG. 1B) [2]: no effect
